What was measured:
heparanase [1] = test: Relative heparanase mRNA expression in organs (qPCR), CLP septic mice; format: in vivo, murine; details: 24 h after CLP
Procedure: The murine model of polymicrobial sepsis was divided into three steps as described before. Briefly, in a first step 12 NMRI mice underwent a catheterization procedure under general (isoflurane 1% to 2% in oxygen/air mix with a FiO2 of 0.3) and local (0.2 ml lidocaine 2%) anesthesia. A central vein catheter (PE-tube, self-made) was implanted in the jugular vein. After further local infiltration with lidocaine, the neck was closed by single suture. To prevent hypothermia all animals were kept on a heating pad throughout the surgical procedure. Mice were transferred back into the cage to rest for 48h. The i.v.-line was connected to the syringe pump at a rate of 100 μl/h (NaCl 0.9%).
In a second step, general and local anesthesia for cecal ligature and puncture (CLP) was performed as described above. The animal were transferred to the cage and reconnected with the i.v.-line. Depending on the group, peptide 19–2.5 infusion (20 μg/ml, 100 μl/h) or NaCl 0.9% infusion (100 μl/h) was started.
Finally, in a third step all animals were killed 24 h after CLP. Therefore, the animals were anesthetized as described above, brought to a prone position and the abdomen and thorax were opened. Blood was sampled in pre-citrated syringes. Directly after killing the animal under general anesthesia by cervical dislocation heart, liver, lung, kidney and spleen were snap-frozen in liquid […] until further procedures.
As described before, total RNA was extracted from snap-frozen tissue (RNeasy Mini Kit, Qiagen, Hilden, Germany) and reverse transcribed to cDNA (Quanti Tec, Rev Transcription Kit, Qiagen, Hilden, Germany). cDNA was analyzed by quantitative real-time PCR performed with Power SYBR Green PCR Master Mix on a StepOnePlus (all Applied Biosystems, Foster City, CA, USA) using a mouse specific primer (biomers, Ulm, Germany) for heparanase 5’-[…]-3’ (for) and 5’-[…]-3’ (rev). Beta-actin was used as an endogenous normalization control: 5’-[…]-3’ (for), 5’-CGG ATGTCAACGTCACACTT-3’ (rev). […]
All data are given as mean ± standard deviation (SD). As described recently, the PCR-derived mRNA expressions were analyzed using a relative expression software tool (REST, (http://www.gene-quantification.de/rest.html, rest-mcs-beta-9august 2006) performing a randomization test. This tool avoids assumptions on distributions and applies a pair wise fixed reallocation randomization test, which reallocates control and sample groups (= pair wise fixed reallocation). The expression ratios are calculated on the basis of the mean crossing point (CP) values for reference and target genes. We used a multiple t-test with Holm-Šídák correction when comparing differences between groups. […]

[2] = cited from earlier work
Description: Since heparanase is the major mammalian enzyme liberating circulating HS-fragments, we investigated heparanase activity in mice subjected to CLP. […] Additionally, the inhibition of heparanase is lung-protective in murine sepsis. Recently, it was sh ...

mice = details: cited from earlier work
Description: (§1) The synthetic antimicrobial peptide 19–2.5 belongs to the class of synthetic anti-lipopolysaccharide peptides (SALP = synthetic anti-LPS peptides). […] We recently reported that peptide 19–2.5 is able to decrease the inflammatory response in murine cells stimulated with both PAM ...

[3] = system: Gram-negative and Gram-positive bacteria as well as against viruses; details: cited from earlier work
Description: as §1

[4] = system: pro-inflammatory cytokines; CD14; details: CLP-mice, cited from earlier work
Description: Several studies report an up to 10-fold increase of heparanase expression after stimulation with pro-inflammatory cytokines. […] Accordingly, we detected organ-specific differences of heparanase levels that m ...

heparanase [5] = test: Plasma heparanase activity, human plasma, peptide added ex vivo; format: biochemical; details: 20 μg/ml peptide ex vivo, Fig 3B
Procedure: (§2) As described before, we used plasma from 18 adult individuals within 24 hours after presentation with septic shock, according to the ACCP/SCCM definition after written informed consent of patients or their legal representative. Individuals below 18 years were excluded. Furthermore, we used plasma from healthy human donors after written informed consent (n = 10). No personal or identifying information was collected from study participants. All samples are stored in the RWTH centralized Biomaterial Database (RWTH cBMB) of the University Hospital RWTH Aachen. The local ethics committee (University Hospital RWTH Aachen, EK 206_09) approved this study before inclusion of the first individual.
Heparanase activity in human and murine plasma was quantified using the commercial available Heparanase Assay Kit (No.: Ra001-BE-K, AMS Biotechnology, Oxon, United Kingdom) according to the manufacturer’s instructions.

[6] = set-up: method as in PMID 22457281; details: after incubating HS with peptide 19–2.5; cited from earlier work
heparanase [7] = test: Plasma heparanase level (ELISA), human plasma, peptide added ex vivo; format: biochemical; details: 20 μg/ml peptide ex vivo, Fig 1B, n.s.
Procedure: as §2
Heparanase levels in human and murine plasma were measured using a commercial ELISA kit (No.: E03H0100, AMS Biotechnology, Oxon, United Kingdom) according to the manufacturer’s instructions. The ELISA´s detection range is 1.0 ng/ml– 5000 ng/ml.

[8] = plasma of septic shock patients (n = 18)

peptide 19–2.5: synthetic antimicrobial peptide 19–2.5 belongs to the class of synthetic anti-lipopolysaccharide peptides (SALP = synthetic anti-LPS peptides)
heparanase mRNA expression under peptide treatment (heparanase [1]; all investigated organ tissues (heart, liver, lung, kidney, spleen), CLP-mice, 20 μg/ml, 100 μl/h i.v., Fig 2): decreased heparanase mRNA expression in all investigated organ tissues | relative heparanase mRNA expression, untreated CLP-mice vs peptide-treated (heparanase [1]; kidney, increase in untreated CLP-mice vs peptide 19–2.5 (20 μg/ml, 100 μl/h i.v., n = 6 per group), normalized to ß-actin, mean ± SD, Fig 2E): 5.7±1.9 fold | relative heparanase mRNA expression, untreated CLP-mice vs peptide-treated (heparanase [1]; lung, liver, spleen, heart and kidney, result in words, 20 μg/ml, 100 μl/h i.v., n = 6 per group, Fig 2A–2E, **p < 0.01, ***p < 0.0001): significantly higher in untreated CLP-mice compared to mice treated with peptide 19–2.5 | relative heparanase mRNA expression, untreated CLP-mice vs peptide-treated (heparanase [1]; lung, increase in untreated CLP-mice vs peptide 19–2.5 (20 μg/ml, 100 μl/h i.v., n = 6 per group), normalized to ß-actin, mean ± SD, Fig 2A): 2.2±2.2 fold | effect on LPS aggregate structure and pro-inflammatory effects [2]: changes the aggregate structure of LPS thereby neutralizing the pro-inflammatory effects of LPS | protection from lethal septic shock (mice): protects mice from lethal septic shock | anti-inflammatory activity [3]: shows anti-inflammatory activity against Gram-negative and Gram-positive bacteria as well as against viruses | mRNA expression of CD14 ([4]; differences between organs): decreases mRNA expression of CD14 | levels of pro-inflammatory cytokines [4]: decreases levels of pro-inflammatory cytokines in CLP-mice | plasma heparanase activity after ex vivo addition of peptide (heparanase [5]; plasma of healthy humans (n = 10), n.s.): did not alter heparanase activity | plasma heparanase activity after ex vivo addition of peptide (heparanase [5]; [8]): significantly lowered heparanase activity | effect on peptide secondary structure and on HS hydration and sulfation status [6]: alteration of the peptide’s secondary structure and a characteristic change in the hydration and sulfation status of HS | plasma heparanase level after ex vivo addition of peptide (heparanase [7]; plasma of healthy human volunteers (n = 10)): did not influence heparanase levels | plasma heparanase level after ex vivo addition of peptide (heparanase [7]; [8]): did not influence heparanase levels
